Experimental data as given in patent US10209240B2, “Predicting human developmental toxicity of pharmaceuticals using human stem-like cells and metabolomic ratios” (STEMINA BIOMARKER DISCOVERY, INC., priority 2012, dated 2019).
Like-named read-outs stand apart in the source and are kept apart here.

How the values were obtained:
WA09 hES cells [1] = settings: for Teratogenicity Potential (μM) Cell Viability: human, 72 h
rat = settings: cited from earlier work
Humans = settings: cited from earlier work; for Humans (known human developmental toxicity): training and test set
Rabbit = settings: training and test set; cited from earlier work
WA09 hES cells [2] = test: Phase 2 targeted biomarker assay, ornithine/cystine ratio, 9-point dose response; settings: for Teratogenicity Potential (μM) O/C Ratio: human, 72 h
Method in brief: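 WA09 hES cells (≤ passage 40), plated as single cells at 100,000/well on Matrigel in mTeSR1 with 10 μM Y27632, dosed 24 h later with nine 3-fold dilutions, 0.04–300 μM, 0.1% DMSO, for 72 h. Final-24 h spent medium, spiked with 13C6-arginine and filtered (<10 kDa), analysed by LC-HRMS; viability by CellTiter-Fluor.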

[3] = summarized from TERIS and Briggs et al. 2011, cited from earlier work
zebrafish = settings: training and test set; weak/moderate and strong teratogens both labeled teratogen; cited from earlier work
[4] = therapeutic peak plasma in vivo concentration, human, cited from earlier work
Rodent = settings: training and test set; cited from earlier work
[5] = system: mouse embryonic stem cell; settings: training and test set; weak/moderate and strong teratogens both labeled teratogen; cited from earlier work
hES cells [6] = test: devTOX computational model predictions (Version 2.0, Version 2.1) from hES cell metabolomics; assay type: cell-based, human; settings: single dose per treatment (Dose column)
Source text: The selection process weighted the predictive capacity of a feature, overall intensity, and peak shape to identify very well behaved features/metabolites that could be measured by targeted LC-MS or even by other detection systems.
This simplified model is based on a ratio of the reference treatment (DMSO) normalized values of ADMA and cystine.

[7] = Solubility in DMSO for stock solutions; settings: at the stock concentrations used in this study
Method: Phase I hES Cell Compound Exposure. hES cells were treated with a test compound at a single concentration equivalent to the compound's published therapeutic Cmax. […] This was done to ensure that enough cells were present at the time of sample collection to provide a signal for LC-HRMS analysis. For test compound exposure, all compound stock solutions, with the exception of valproic acid, were made with DMSO (Sigma-Aldrich). […] Each 96-well plate included media controls with and without test compound, 0.1% DMSO solvent control cells and cells exposed to a single concentration of eight different test compounds (FIG. 1A). Media controls were included on each plate to assess the impact of test compound on the sample matrix. hES cells were exposed to the test compound for 72 hours, with media and test compound replacement every 24 hours. Cells were monitored throughout the treatment period to ensure that no differentiation was occurring. After 72 hours of treatment, the spent media from the final 24-hour treatment period was collected and added to acetonitrile (Sigma-Aldrich, final acetonitrile concentration 40%), to halt metabolic processes and precipitate proteins from solution. Individual wells from each 96-well plate were collected and analyzed as separate samples. These samples were then stored at −80° C. until prepared for LC-HRMS analysis. Cell viability was assessed using the CellTiter-Fluor Cell Viability Assay as per the manufacturer's instructions (Promega, Madison, Wis.). […]
Phase 2 hES Cell Compound Exposure. […] Cell viability was assessed using the CellTiter-Fluor Cell Viability Assay. A quality control step was included with criteria that the CV of the measured viability RFU of the DMSO control cells could not exceed 10% for a plate to undergo LC-HRMS analysis. […]

hES cells [8] = test: ADMA/cystine ratio simplified predictive model in hES cell spent media; assay type: cell-based, human; settings: single dose per treatment; ratios less than 0.9 indicate teratogenicity
Method in brief: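 hES cell spent media were analysed for ADMA and cystine, each normalized to the DMSO reference, and their ratio formed. Each value is the median of independent blocks (6 reps each). A ratio cutoff of 0.9 classifies teratogens versus non-teratogens.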

rat whole embryo = settings: training and test set; weak/moderate and strong teratogens both labeled teratogen; cited from earlier work

For `CC[C@H](C)C(=O)O[C@H]1C[C@@H](C)C=C2C=C[C@H](C)[C@H](CC[C@@H]3C[C@@H](O)CC(=O)O3)[C@H]21` [Lovastatin], the “Viability Prediction” value (WA09 hES cells [1]) is listed as “NON”, the “Teratogenicity Potential (μM) Cell Viability” value (WA09 hES cells [1]) is listed as 4.1 µM and the Cmax (rat; in vivo, 100 mg/kg/day) is listed as ~1.5 µM. The “lowest observed adverse effect level (LOAEL)” value (rat; in vivo) was 100 mg/kg body weight per day, the “Humans (known human developmental toxicity)” value (from here on “Humans”) (Humans) was “TER” and the Rabbit prediction (Rabbit) was “NON”. For the same compound, the “O/C Ratio Prediction” value (WA09 hES cells [2]) was “NON”, the “Targeted Biomarker Assay prediction” value (WA09 hES cells [2]) was “NON” and the “Teratogenicity Potential (μM) O/C Ratio” value (WA09 hES cells [2]) was 1.3 µM. For the same compound, the “Preclinical in vivo and known human developmental effects” value (“Preclinical” for short) ([3]; test set compounds) was “Skeletal, embryo toxicity^c”, the ZET prediction (zebrafish) was “TER^d” and the Cmax ([4]; test set) was 0.02 µM. The Rodent prediction (Rodent) was “TER” and the mEST prediction [5] was “TER^m”.

For `CCCC(CCC)C(=O)O` [Valproic Acid], the “Viability Prediction” value (WA09 hES cells [1]) is given as “NON”, the “Teratogenicity Potential (μM) Cell Viability” value (WA09 hES cells [1]) is given as 1113.7 µM and the “Humans” value (Humans) is given as “TER”. For the same compound, the “Known Effect” value (Humans; validation and test set treatments of Example 2) was “Ter”, the “Model Predictions Version 2.0” value (hES cells [6]) was “Ter” and the “Model Predictions Version 2.1” value (hES cells [6]) was “Ter”. For the same compound, the Rabbit prediction (Rabbit) was “TER^u”, the “Change in the o/c ratio, also relative to cytotoxicity” value (WA09 hES cells [2]) was “marked change in the o/c ratio at exposure levels well before cytotoxicity is observed” and the “O/C Ratio Prediction” value (WA09 hES cells [2]) was “TER”. The “Targeted Biomarker Assay prediction” value (WA09 hES cells [2]) was “TER”, the “Teratogenicity Potential (μM) O/C Ratio” value (WA09 hES cells [2]) was 90.8 µM and the “Preclinical” value ([3]; training set compounds) was “Central nervous system,”. The “Solubility in DMSO (words)” value ([7]; listed as Valproic acid) was “insoluble in DMSO”, the “Solubility in DMSO (words)” value ([7]; listed as valproic acid) was “completely insoluble in DMSO” and the ZET prediction (zebrafish) was “TER^e,n”. For the same compound, the Cmax ([4]; training set) was 1000 µM, the “Model Predictions ADMA/Cystine” value (hES cells [8]) was “Ter” and the WEC prediction (rat whole embryo) was “TER^f,j”. The Rodent prediction (Rodent) was “TER” and the mEST prediction [5] was “TER^b,i”.

In the case of `CS(=O)(=O)CCNCc1ccc(-c2ccc3ncnc(Nc4ccc(OCc5cccc(F)c5)c(Cl)c4)c3c2)o1` [Lapatinib], the “Viability Prediction” value (WA09 hES cells [1]) is given as “NON”, the “Teratogenicity Potential (μM) Cell Viability” value (WA09 hES cells [1]) is given as 20.8 µM and the “Exposure level causing rat pup mortality relative to human clinical exposure based on AUC” value (rat; given during organogenesis, Briggs et al. 2011) is given as “about 3.3 times”. For the same compound, the “Humans” value (Humans) was “TER”, the Rabbit prediction (Rabbit) was “TER” and the “O/C Ratio Prediction” value (WA09 hES cells [2]) was “NON”. For the same compound, the “Targeted Biomarker Assay prediction” value (WA09 hES cells [2]) was “NON”, the “Teratogenicity Potential (μM) O/C Ratio” value (WA09 hES cells [2]) was 29 µM and the “Preclinical” value ([3]; test set compounds) was “Skeletal, embryo toxicity^c”. For the same compound, the Cmax ([4]; test set) was 4.2 µM and the Rodent prediction (Rodent) was “TER”.
